Assay results taken from patent publication US20050014268A1, “Genetic transformation using a PARP inhibitor” (Bayer BioScience NV, priority 1995, published 2005).

Key:
Type in all cases: cell-based
[1] = test system: Hypocotyl explants of Brassica napus; assay: Agrobacterium mediated transformation of oilseed rape hypocotyl explants with pTHW107, niacinamide for 4 days prior to infection
Protocol: Hypocotyl explants of Brassica napus were obtained, cultured and transformed essentially as described by De Block et al, 1989, Plant Physiol. 914:694-701 except for the following modifications: • hypocotyl explants were precultured for 3 days on A2 medium (MS, 0.5 g/l Mes (pH 5.7), 1.2% glucose, 0.5% agarose, 1 mg/l 2,4-D, 0.25 mg/l naphthalene acetic acid (NAA), 1 mg/l 6-benzylaminopurine (BAP)), and then transferred to the A2 medium with or without niacinamide for another 4 days. • infection medium A3 was MS, 0.5 g/l Mes (pH 5.7), 1.2% glucose, 0.1 mg/l NAA, 0.75 mg/l BAP, 0.01 mg/l giberellinic acid (GA3) • selection medium A5 was 0.5 g/l Mes (pH 5.7), 1.2% glucose, 40 mg/l adenine.SO4, 0.5 g/l polyvinyl-polypyrrolidone (PVP), 0.5% agarose, 0.1 mg/l NAA, 0.75 mg/l BAP, 0.01 mg/l GA3, 250 mg/l carbenicillin, 250 mg/l triacillin, 5 mg/l AgNO3. • regeneration medium A6 was MS, 0.5 g/l Mes (pH 5.7), 2% sucrose, 40 mg/l adenine.SO4, 0.5 g/l PVP, 0.5% agarose, 0.0025 mg/l BAP, 250 mg/l triacillin. • healthy shoots were transferred to 1 liter vessels containing rooting medium which was either A8 or A9; A8 consists of 100-130 ml half concentrated MS, 1% sucrose (pH 5.0), 1 mg/l isobutyric acid (IBA), 100 mg/l triacillin added to 300 ml perlite (final pH 6.2); A9 consists of half concentrated MS, 1.5% sucrose (pH 5.8) solidified with agar (0.6%)
Hypocotyl explants (with or without niacinamide treatment) were infected with Agrobacterium tumefaciens strain C58C1Rif carrying T-DNA vector pTHW107 and a helper Ti-plasmid pMP90 (Koncz and Schell, 1986, Mol.Gen.Genet. 204:383-396)(or a derivative thereof).
Plasmid pTHW107 is a vector carrying a T-DNA comprising the following chimeric genes: • PTA29-barnase-3′g7 • PSSU-bar-3′nos • in which PTA29 is the promoter of the TA29 gene of tobacco (EP 344029) and PSSU is the promoter of the gene of Arabidopsis thaliana encoding the small subunit of Rubisco. The complete sequence of the T-DNA of pTHW107 is presented in SEQ ID No 1.
Where required niacinamide (250 mg/l) was added to the media for the last 4 days prior to infection with Agrobacterium. […] Five plants regenerated from the calli obtained by transformation including niacinamide and five plants regenerated from the calli obtained by conventional transformation without niacinamide inclusion, were analyzed by Southern hybridization to determine the copy number of the transgenes, and were further analyzed for reproductive phenotype.

[2] = test system: Wheat embryogenic callus; assay: Tissue culture of wheat embryogenic callus on W2 medium containing niacinamide
Protocol: After the one day incubation the capacity of the transformed and control tissues to reduce 2,3,5-triphenyltetrazolium chloride (TTC) is measured e.g. by the following procedure which is modified from Towill and Mazur (supra): • incubate the tissues for 1 to 4 hours in K-phosphate buffer (pH 7.4) containing 10 mM TTC and 0.1% Tween20. […] The O.D. of the control extract is subtracted from the OD of the TTC-reacted extracts. In the above conditions 0.1 mM reduced TTC corresponds to an OD485 of 0.214 or OD545 of 1.025 (light path 1 cm). • the reducing capacity of the transformed plant line is compared to that of the control line. Wheat embryogenic callus was cultured on W2 medium (see Example 2).

[3] = test system: cultured cells; assay: Optimal concentration of PARP inhibitor in the culture medium; details: i.e. about 2 mM; incubation not longer than 14 days
Protocol: The concentration of the PARP inhibitor in the medium is also believed to have an effect on the inhibition of PARP, which varies depending on the nature of the cells (species, tissue explant, general culture conditions, etc.) However, within certain concentration ranges, the effect is minimal, especially when the cultured cells are not incubated for longer than 14 days. The optimal concentration range of PARP inhibitor in the medium may vary depending on the species from which the tissue, cell or cell culture is derived, but 250 mg/l (about 2 mM) is believed to be a suitable concentration for many purposes (e.g. for use with material derived from wheat). However, when nicotinamide is used in combination with plant material derived from rice, the concentration of nicotinamide should preferably be between 500 mg/l (about 4 mM) and 1000 mg/l (approx. 8 mM). On the other hand, when nicotinamide is used in combination with plant material derived from corn, the concentration of nicotinamide should preferably be 100 mg/l. […] The optimal concentration will depend on the nature of the specific PARP inhibitor used, particularly on its strength of inhibition (as measured by its Ki and/or by its percentage inhibition of PARP under standard conditions—Sims et al, supra). […]

[4] = 250 mg/l niacinamide for the last 4 days prior to infection
[5] = Before 250, regenerated plants Id. No. 1-5

## NC(=O)c1cccnc1 [niacinamide]
[1]; [4]
  copy number in plants regenerated from transformed calli: low copy number
  variation in the expression profile of the transgenes: less variation
[1]; Before 250, pollinated with untransformed N90-740, phosphinotricin resistant F1-progeny
  Phenotype of the F1-progeny (vegetative/reproductive): normal/sterile
[1]; [5]
  Reproductive phenotype (male sterility): sterile
  Vegetative phenotype: normal
[2]; 250 mg/l (approx. 2 mM) niacinamide in W2 medium, growth slowed after 4 days, rate after 4 weeks
  growth of the tissue (rate relative to the normal rate): approximately 30%
[2]; 250 mg/l niacinamide in W2 medium, at least one month
  viability of the tissue: remained viable for extended periods of time
[2]; after 4-5 days of incubation with niacinamide
  TTC-reducing capacity of the tissue: substantially decreased
[2]; niacinamide subsequently removed from the medium
  growth after removal of niacinamide from the medium: started to grow normally again
[3]
  optimal concentration in the culture medium: approximately 250 mg/l
